Assay results reported in article PMC4303209, “A novel phosphatidylinositol 3-kinase (PI3K) inhibitor directs a potent FOXO-dependent, p53-independent cell cycle arrest phenotype characterized by the differential induction of a subset of FOXO-regulated genes” (Breast Cancer Research : BCR, 2014).

System: MCF-7 breast cancer cells
Assay: Microarray gene expression analysis (Agilent whole human genome 4 x 44K; compound vs DMSO, LIMMA log2 fold change)
Format: cell-based
Details: Apoptosis genes

Oc1cccc(-c2nc(N3CCOCC3)c3oc4ncccc4c3n2)c1 [PI-103]
HSPD1 log2FC (Gene 3329): -0.080
HSPE1 log2FC (Gene 3336): -0.309
HTR2B log2FC (Gene 3357): -0.397
IAPP log2FC (Gene 3375): -0.066
ID1 log2FC (Gene 3397): 0.070
ID3 log2FC (Gene 3399): -0.082
IFI16 log2FC (Gene 3428): 0.334
IFI27 log2FC (Gene 3429): -0.196
IFIT2 log2FC (Gene 3433): 1.643
IFIT3 log2FC (Gene 3437): 0.140
IFNG log2FC (Gene 3458): -0.040
IGBP1 log2FC (Gene 3476): 0.178
IGF1 log2FC (Gene 3479): 0.051
IGF1R log2FC (Gene 3480): 0.084
IGF2R log2FC (Gene 3482): 0.351
IGFBP3 log2FC (Gene 3486): 0.086
IKBKB log2FC (Gene 3551): 0.122
IL1B log2FC (Gene 3553): 0.035
IL1RN log2FC (Gene 3557): -0.235
IL2 log2FC (Gene 3558): -0.008
IL4 log2FC (Gene 3565): -0.010
IL6 log2FC (Gene 3569): 0.006
IL6R log2FC (Gene 3570): 0.551
IL6ST log2FC (Gene 3572): 0.257
IL7 log2FC (Gene 3574): 0.210
IL10 log2FC (Gene 3586): -0.050
TNFRSF9 log2FC (Gene 3604): -0.328
ING2 log2FC (Gene 3622): 0.264
INHBA log2FC (Gene 3624): -0.687
INHBB log2FC (Gene 3625): -0.799
INS log2FC (Gene 3630): -0.043
INPP5D log2FC (Gene 3635): -0.048
INSL3 log2FC (Gene 3640): -0.069
IRAK1 log2FC (Gene 3654): -0.233
IRF1 log2FC (Gene 3659): -0.382
IRF3 log2FC (Gene 3661): -0.472
IRF5 log2FC (Gene 3663): 1.340
IRF7 log2FC (Gene 3665): 0.353
ITGA1 log2FC (Gene 3672): 0.190
ITGA5 log2FC (Gene 3678): -0.454
ITGAV log2FC (Gene 3685): 0.599
ITGB1 log2FC (Gene 3688): 0.583
ITPR1 log2FC (Gene 3708): 0.249
JAG2 log2FC (Gene 3714): 0.522
JAK2 log2FC (Gene 3717): 0.369
JAK3 log2FC (Gene 3718): -0.043
JUN log2FC (Gene 3725): -0.937
KCNMA1 log2FC (Gene 3778): 0.170
KNG1 log2FC (Gene 3827): -0.057
KPNA1 log2FC (Gene 3836): -0.280
KPNB1 log2FC (Gene 3837): 0.240
KRT8 log2FC (Gene 3856): -0.277
KRT18 log2FC (Gene 3875): -0.442
LCK log2FC (Gene 3932): -0.114
LEP log2FC (Gene 3952): -0.051
LGALS7 log2FC (Gene 3963): -0.229
LIG4 log2FC (Gene 3981): 0.035
LMNA log2FC (Gene 4000): -0.013
LMNB1 log2FC (Gene 4001): -0.018
LRP6 log2FC (Gene 4040): -0.118
LTBR log2FC (Gene 4055): -0.111
LTK log2FC (Gene 4058): -0.062
LYN log2FC (Gene 4067): -0.359
SMAD3 log2FC (Gene 4088): 0.243
SMAD6 log2FC (Gene 4091): 0.083
MAL log2FC (Gene 4118): -0.429
MAX log2FC (Gene 4149): -0.351
MCF2 log2FC (Gene 4168): 0.031
MCL1 log2FC (Gene 4170): -1.349
MDK log2FC (Gene 4192): 0.235
MDM2 log2FC (Gene 4193): -0.113
MECP2 log2FC (Gene 4204): -0.128
MEF2A log2FC (Gene 4205): -0.174
MEF2C log2FC (Gene 4208): 0.238
MEF2D log2FC (Gene 4209): -0.520
MAP3K5 log2FC (Gene 4217): -0.660
MEN1 log2FC (Gene 4221): 0.029
KITLG log2FC (Gene 4254): -0.218
MGMT log2FC (Gene 4255): -0.055
MIF log2FC (Gene 4282): 0.230
MLH1 log2FC (Gene 4292): 0.343
MAP3K9 log2FC (Gene 4293): -0.693
MAP3K10 log2FC (Gene 4294): 0.639
MAP3K11 log2FC (Gene 4296): -0.577
MMP9 log2FC (Gene 4318): -0.279
MNAT1 log2FC (Gene 4331): 0.589
MNT log2FC (Gene 4335): 1.538
MPO log2FC (Gene 4353): -0.006
CITED1 log2FC (Gene 4435): -0.101
MSH2 log2FC (Gene 4436): 0.786
MSX1 log2FC (Gene 4487): -0.243
MUC1 log2FC (Gene 4582): -0.282
MUC2 log2FC (Gene 4583): -0.081
MUC5AC log2FC (Gene 4586): -0.288
MUSK log2FC (Gene 4593): -0.262
MX1 log2FC (Gene 4599): 0.148
MYC log2FC (Gene 4609): 0.421
MYD88 log2FC (Gene 4615): -0.601
GADD45B log2FC (Gene 4616): 0.857
NBN log2FC (Gene 4683): 0.619
NDUFS1 log2FC (Gene 4719): 0.294
NF1 log2FC (Gene 4763): 0.451
NFATC4 log2FC (Gene 4776): 0.296
NFE2L2 log2FC (Gene 4780): 0.540
NFKB1 log2FC (Gene 4790): -0.256
NFKBIA log2FC (Gene 4792): -0.656
NGFR log2FC (Gene 4804): -0.069
NKX3-1 log2FC (Gene 4824): -0.386
NME1 log2FC (Gene 4830): 0.199
NME2 log2FC (Gene 4831): 0.205
NME3 log2FC (Gene 4832): -0.013
NMT1 log2FC (Gene 4836): -0.214
NODAL log2FC (Gene 4838): -0.025
NOS3 log2FC (Gene 4846): -0.168
NOTCH2 log2FC (Gene 4853): 0.274
NPM1 log2FC (Gene 4869): 0.282
NPTX1 log2FC (Gene 4884): -0.756
NPY5R log2FC (Gene 4889): -0.042
SLC11A2 log2FC (Gene 4891): 0.320
NRAS log2FC (Gene 4893): -0.535
NTF3 log2FC (Gene 4908): -1.099
NTRK2 log2FC (Gene 4915): -0.265
NR4A2 log2FC (Gene 4929): 0.442
OCLN log2FC (Gene 4950): 0.409
OPA1 log2FC (Gene 4976): 0.350
TNFRSF11B log2FC (Gene 4982): 0.966
OSM log2FC (Gene 5008): -0.008
P2RX1 log2FC (Gene 5023): -0.016
P2RX4 log2FC (Gene 5025): 0.348
P2RX7 log2FC (Gene 5027): -0.319
SERPINB2 log2FC (Gene 5055): -0.093
PAK1 log2FC (Gene 5058): 0.071
PAK2 log2FC (Gene 5062): -0.103
PARK2 log2FC (Gene 5071): -0.149
PAWR log2FC (Gene 5074): 0.876
PAX3 log2FC (Gene 5077): -0.114
PAX4 log2FC (Gene 5078): -0.073
PAX7 log2FC (Gene 5081): -0.197
PCNT log2FC (Gene 5116): 0.446
PDCD1 log2FC (Gene 5133): -0.284
PDCD2 log2FC (Gene 5134): -0.282
PDE1A log2FC (Gene 5136): -0.171
PDK1 log2FC (Gene 5163): 0.405
PDK2 log2FC (Gene 5164): 1.524
PDK4 log2FC (Gene 5166): 0.866
PDPK1 log2FC (Gene 5170): 0.478
PHB log2FC (Gene 5245): -0.382
SERPINB9 log2FC (Gene 5272): -0.438
SERPINB10 log2FC (Gene 5273): 0.028
PIK3CA log2FC (Gene 5290): 0.818
PIM1 log2FC (Gene 5292): 1.292
PIK3R1 log2FC (Gene 5295): 0.203
PLAGL1 log2FC (Gene 5325): 0.317
PLAGL2 log2FC (Gene 5326): -1.296
PLK1 log2FC (Gene 5347): -0.016
PLSCR1 log2FC (Gene 5359): 0.371
PMAIP1 log2FC (Gene 5366): -1.121
